According to patent US20230348442A1, “GALECTIN-3 INHIBITING 2-HYDROXYCYCLOALKANE-1-CARBAMOYL DERIVATIVES” (Idorsia Pharmaceuticals Ltd, priority 2020, published 2023):

Biological target: human Gal-3 (hGal-3) (Homo sapiens (Human), UniProt P17931)
Assay: competitive binding assay: binding of biotinylated hGal-3 to microplate-adsorbed asialofetuin (ASF), spectrophotometric
Details: Activity on hGal-3; mean values of several measurements
In short: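 Biotinylated hGal-3 (300-1000 ng/mL) bound to ASF-coated wells with serially diluted compound, 3 h at 4° C. After washing, bound protein was detected with streptavidin-peroxidase (80 ng/mL, 1 h, 4° C) and ABTS substrate; IC50 values are means of several measurements.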

Chain of human Gal-3 (hGal-3) (P17931 whole entry): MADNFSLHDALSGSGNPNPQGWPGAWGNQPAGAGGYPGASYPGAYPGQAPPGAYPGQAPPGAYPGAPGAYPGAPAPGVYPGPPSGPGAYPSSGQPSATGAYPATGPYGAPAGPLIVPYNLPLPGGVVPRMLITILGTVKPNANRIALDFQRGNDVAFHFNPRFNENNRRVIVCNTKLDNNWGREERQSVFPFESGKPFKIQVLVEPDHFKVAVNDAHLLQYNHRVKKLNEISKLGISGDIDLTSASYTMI

Row | IC50 [nM] | SMILES
1 | 46.3 | CO[C@@H]1[C@@H](n2cc(-c3cc(F)c(Cl)c(Cl)c3)nn2)[C@@H](O)[C@@H](CO)O[C@H]1C(=O)N(c1cc(Br)cc(C#N)c1)[C@H]1CCC[C@@H]1O [Example 1.17.5, (2R,3R,4S,5R,6R)-N-(3-bromo-5-cyanophenyl)-4-(4-(3,4-dichloro-5-fluorophenyl)-1H-1,2,3-triazol-1-yl)-5-hydroxy-N-((1S,2S)-2-hydroxycyclopentyl)-6-(hydroxymethyl)-3-methoxytetrahydro-2H-pyran-2-carboxamide]
2 | 90.7 | CO[C@@H]1[C@@H](n2cc(-c3ccc(Cl)cc3)nn2)[C@@H](O)[C@@H](CO)O[C@H]1C(=O)N(c1cc(Cl)cc(C#N)c1)[C@H]1CCC[C@@H]1O [Example 1.18.4, (2R,3R,4S,5R,6R)-N-(3-chloro-5-cyanophenyl)-4-(4-(4-chlorophenyl)-1H-1,2,3-triazol-1-yl)-5-hydroxy-N-((1S,2S)-2-hydroxycyclopentyl)-6-(hydroxymethyl)-3-methoxytetrahydro-2H-pyran-2-carboxamide]
3 | 536 | CO[C@@H]1[C@@H](n2cc(-c3ccc(Cl)cc3)nn2)[C@@H](O)[C@@H](CO)O[C@H]1C(=O)N(c1cc(Cl)cc(C#N)c1)[C@@H]1CCC[C@H]1O [Example 1.18.4R, (2R,3R,4S,5R,6R)-N-(3-chloro-5-cyanophenyl)-4-(4-(4-chlorophenyl)-1H-1,2,3-triazol-1-yl)-5-hydroxy-N-((1R,2R)-2-hydroxycyclopentyl)-6-(hydroxymethyl)-3-methoxytetrahydro-2H-pyran-2-carboxamide]
4 | 163 | CO[C@@H]1[C@@H](n2cc(-c3ccc(Br)cc3)nn2)[C@@H](O)[C@@H](CO)O[C@H]1C(=O)N(c1cc(Cl)cc(C#N)c1)[C@H]1CCC[C@@H]1O [Example 1.19.4, (2R,3R,4S,5R,6R)-4-(4-(4-bromophenyl)-1H-1,2,3-triazol-1-yl)-N-(3-chloro-5-cyanophenyl)-5-hydroxy-N-((1S,2S)-2-hydroxycyclopentyl)-6-(hydroxymethyl)-3-methoxytetrahydro-2H-pyran-2-carboxamide]
5 | 312 | CO[C@@H]1[C@@H](n2cc(-c3ccc(Br)cc3)nn2)[C@@H](O)[C@@H](CO)O[C@H]1C(=O)N(c1cc(Cl)cc(C#N)c1)[C@@H]1CCC[C@H]1O [Example 1.19.4R, (2R,3R,4S,5R,6R)-4-(4-(4-bromophenyl)-1H-1,2,3-triazol-1-yl)-N-(3-chloro-5-cyanophenyl)-5-hydroxy-N-((1R,2R)-2-hydroxycyclopentyl)-6-(hydroxymethyl)-3-methoxytetrahydro-2H-pyran-2-carboxamide]
6 | 25.7 | CO[C@@H]1[C@@H](n2cc(-c3ccc(F)c(F)c3F)nn2)[C@@H](O)[C@@H](CO)O[C@H]1C(=O)N(c1cc(Cl)cc(C#N)c1)[C@H]1CCC[C@@H]1O [Example 1.20.4, (2R,3R,4S,5R,6R)-N-(3-chloro-5-cyanophenyl)-5-hydroxy-N-((1S,2S)-2-hydroxycyclopentyl)-6-(hydroxymethyl)-3-methoxy-4-(4-(2,3,4-trifluorophenyl)-1H-1,2,3-triazol-1-yl)tetrahydro-2H-pyran-2-carboxamide]
7 | 28.7 | CO[C@@H]1[C@@H](n2cc(-c3ccc(F)c(F)c3F)nn2)[C@@H](O)[C@@H](CO)O[C@H]1C(=O)N(c1cc(Br)cc(C#N)c1)[C@H]1CCC[C@@H]1O [Example 1.20.5, (2R,3R,4S,5R,6R)-N-(3-bromo-5-cyanophenyl)-5-hydroxy-N-((1S,2S)-2-hydroxycyclopentyl)-6-(hydroxymethyl)-3-methoxy-4-(4-(2,3,4-trifluorophenyl)-1H-1,2,3-triazol-1-yl)tetrahydro-2H-pyran-2-carboxamide]
8 | 23 | CC(=O)O[C@@H]1[C@@H](n2cc(-c3cc(F)c(F)c(F)c3)nn2)[C@@H](O)[C@@H](CO)O[C@H]1C(=O)N(c1cc(Cl)cc(Cl)c1)[C@H]1CCC[C@@H]1O [Example 1A.1.2, (2R,3R,4S,5R,6R)-2-((3,5-dichlorophenyl)((1S,2S)-2-hydroxycyclopentyl)carbamoyl)-5-hydroxy-6-(hydroxymethyl)-4-(4-(3,4,5-trifluorophenyl)-1H-1,2,3-triazol-1-yl)tetrahydro-2H-pyran-3-yl acetate]
9 | 25.3 | CC(=O)O[C@@H]1[C@@H](n2cc(-c3cc(F)c(F)c(F)c3)nn2)[C@@H](O)[C@@H](CO)O[C@H]1C(=O)N(c1cc(Cl)cc(C#N)c1)[C@H]1CCC[C@@H]1O [Example 1A.1.4, (2R,3R,4S,5R,6R)-2-((3-chloro-5-cyanophenyl)((1S,2S)-2-hydroxycyclopentyl)carbamoyl)-5-hydroxy-6-(hydroxymethyl)-4-(4-(3,4,5-trifluorophenyl)-1H-1,2,3-triazol-1-yl)tetrahydro-2H-pyran-3-yl acetate]
10 | 12.9 | CC(=O)O[C@@H]1[C@@H](n2cc(-c3cc(F)c(C)c(F)c3)nn2)[C@@H](O)[C@@H](CO)O[C@H]1C(=O)N(c1cc(Cl)cc(Cl)c1)[C@H]1CCC[C@@H]1O [Example 1A.4.2, (2R,3R,4S,5R,6R)-2-((3,5-dichlorophenyl)((1S,2S)-2-hydroxycyclopentyl)carbamoyl)-4-(4-(3,5-difluoro-4-methylphenyl)-1H-1,2,3-triazol-1-yl)-5-hydroxy-6-(hydroxymethyl)tetrahydro-2H-pyran-3-yl acetate]
11 | 26.8 | CC(=O)O[C@@H]1[C@@H](n2cc(-c3cc(F)c(C)c(F)c3)nn2)[C@@H](O)[C@@H](CO)O[C@H]1C(=O)N(c1cc(Cl)cc(C#N)c1)[C@H]1CCC[C@@H]1O [Example 1A.4.4, (2R,3R,4S,5R,6R)-2-((3-chloro-5-cyanophenyl)((1S,2S)-2-hydroxycyclopentyl)carbamoyl)-4-(4-(3,5-difluoro-4-methylphenyl)-1H-1,2,3-triazol-1-yl)-5-hydroxy-6-(hydroxymethyl)tetrahydro-2H-pyran-3-yl acetate]
12 | 19.8 | CC(=O)O[C@@H]1[C@@H](n2cc(-c3cc(F)c(Cl)c(F)c3)nn2)[C@@H](O)[C@@H](CO)O[C@H]1C(=O)N(c1cc(Cl)cc(Cl)c1)[C@H]1CCC[C@@H]1O [Example 1A.5.2, (2R,3R,4S,5R,6R)-4-(4-(4-chloro-3,5-difluorophenyl)-1H-1,2,3-triazol-1-yl)-2-((3,5-dichlorophenyl)((1S,2S)-2-hydroxycyclopentyl)carbamoyl)-5-hydroxy-6-(hydroxymethyl)tetrahydro-2H-pyran-3-yl acetate]
13 | 16.4 | CC(=O)O[C@@H]1[C@@H](n2cc(-c3cc(F)c(Cl)c(F)c3)nn2)[C@@H](O)[C@@H](CO)O[C@H]1C(=O)N(c1cc(Cl)cc(C#N)c1)[C@H]1CCC[C@@H]1O [Example 1A.5.4, (2R,3R,4S,5R,6R)-4-(4-(4-chloro-3,5-difluorophenyl)-1H-1,2,3-triazol-1-yl)-2-((3-chloro-5-cyanophenyl)((1S,2S)-2-hydroxycyclopentyl)carbamoyl)-5-hydroxy-6-(hydroxymethyl)tetrahydro-2H-pyran-3-yl acetate]
14 | 28.9 | N#Cc1cc(Cl)cc(N(C(=O)[C@@H]2O[C@H](CO)[C@H](O)[C@H](n3cc(-c4cc(F)c(F)c(F)c4)nn3)[C@H]2O)[C@H]2CCC[C@@H]2O)c1 [Example 1H.1.4, (2R,3R,4S,5R,6R)-N-(3-chloro-5-cyanophenyl)-3,5-dihydroxy-N-((1S,2S)-2-hydroxycyclopentyl)-6-(hydroxymethyl)-4-(4-(3,4,5-trifluorophenyl)-1H-1,2,3-triazol-1-yl)tetrahydro-2H-pyran-2-carboxamide]
15 | 22.7 | Cc1c(F)cc(-c2cn([C@H]3[C@@H](O)[C@@H](CO)O[C@@H](C(=O)N(c4cc(Cl)cc(Cl)c4)[C@H]4CCC[C@@H]4O)[C@@H]3O)nn2)cc1F [Example 1H.4.2, (2R,3R,4S,5R,6R)-N-(3,5-dichlorophenyl)-4-(4-(3,5-difluoro-4-methylphenyl)-1H-1,2,3-triazol-1-yl)-3,5-dihydroxy-N-((1S,2S)-2-hydroxycyclopentyl)-6-(hydroxymethyl)tetrahydro-2H-pyran-2-carboxamide]
16 | 19.3 | Cc1c(F)cc(-c2cn([C@H]3[C@@H](O)[C@@H](CO)O[C@@H](C(=O)N(c4cc(Cl)cc(C#N)c4)[C@H]4CCC[C@@H]4O)[C@@H]3O)nn2)cc1F [Example 1H.4.4, (2R,3R,4S,5R,6R)-N-(3-chloro-5-cyanophenyl)-4-(4-(3,5-difluoro-4-methylphenyl)-1H-1,2,3-triazol-1-yl)-3,5-dihydroxy-N-((1S,2S)-2-hydroxycyclopentyl)-6-(hydroxymethyl)tetrahydro-2H-pyran-2-carboxamide]
17 | 14.3 | O=C([C@@H]1O[C@H](CO)[C@H](O)[C@H](n2cc(-c3cc(F)c(Cl)c(F)c3)nn2)[C@H]1O)N(c1cc(Cl)cc(Cl)c1)[C@H]1CCC[C@@H]1O [Example 1H.5.2, (2R,3R,4S,5R,6R)-4-(4-(4-chloro-3,5-difluorophenyl)-1H-1,2,3-triazol-1-yl)-N-(3,5-dichlorophenyl)-3,5-dihydroxy-N-((1S,2S)-2-hydroxycyclopentyl)-6-(hydroxymethyl)tetrahydro-2H-pyran-2-carboxamide]
18 | 109 | CO[C@@H]1[C@@H](n2cc(-c3cc(F)c(F)c(F)c3)nn2)[C@@H](O)[C@@H](CO)O[C@H]1C(=O)N(c1cccc(Cl)c1)[C@H]1CC[C@@H]1O [Example 2.1.1, (2R,3R,4S,5R,6R)-N-(3-chlorophenyl)-5-hydroxy-N-((1S,2S)-2-hydroxycyclobutyl)-6-(hydroxymethyl)-3-methoxy-4-(4-(3,4,5-trifluorophenyl)-1H-1,2,3-triazol-1-yl)tetrahydro-2H-pyran-2-carboxamide]
19 | 4400 | CO[C@@H]1[C@@H](n2cc(-c3cc(F)c(F)c(F)c3)nn2)[C@@H](O)[C@@H](CO)O[C@H]1C(=O)N(c1cccc(Cl)c1)[C@@H]1CC[C@H]1O [Example 2.1.1R, (2R,3R,4S,5R,6R)-N-(3-chlorophenyl)-5-hydroxy-N-((1R,2R)-2-hydroxycyclobutyl)-6-(hydroxymethyl)-3-methoxy-4-(4-(3,4,5-trifluorophenyl)-1H-1,2,3-triazol-1-yl)tetrahydro-2H-pyran-2-carboxamide]
